From patent US7741348B2, “Bisheterocycle tandem compounds useful as antiviral agents, the uses thereof and the compositions comprising such compounds” (Shanghai Institute of Materia Medica, Chinese Academy of …, priority 2005, dated 2010)
Values after ≈ are worked out from the molar mass of the structure shown. Read-outs that look alike come from different tables or passages of the source.

Experiments:
Assay type in all cases: cell-based
hepatitis B virus (HBV) = experiment: HBV-DNA replication in HepG2.2.15 culture supernatant (fluorescent quantification PCR); conditions: for IC50: Hepatitis B virus; for DNA replication IC89: ICX: concentration with 89% inhibition of HBV-DNA replication; for DNA replication IC12: ICX: concentration with 12% inhibition of HBV-DNA replication
Source text: (§1) Hepatitis B virus (HBV) transgenic human hepatoma carcinoma cell, HepG2.2.15 cell line, can secrete hepatitis B virus particles (containing antigen and DNA) into supernatant when being cultured.
(§2) Under action of antiviral drugs, the contents of HBsAg, HBeAg and viral DNA secreted from cells into the supernatant were detected and are compared with the contents of control groups without drugs, so that the antiviral activity of the compounds of the present invention can be measured as well as the cytotoxic effect of compounds of the present invention. The value concentration of the compounds of the present invention which caused 50% of cells dead and was measured with MTT method was CC50; and the value concentration of the compounds of the present invention which inhibited the secretion of HBsAg and HBeAg detected by ELISA method and inhibited 50% of viral DNA replication detected by fluorescent quantification PCR method was IC50.
(§3) HepG2.2.15 cells were inoculated on a 96-well plate, and the compounds of the present invention were added next day. The medium and the compound solutions of the same concentration were renewed periodically. The culture supernatants were collected on the eighth day to be detected. MTT was added to the cells on the 96-well plate, and MTT dissolving liquid was added after 4 hours to be reacted overnight. OD570 was measured next day on microplate reader. And the cytotoxicity of the compounds of the present invention to the HepG2.2.15 cells, the effect of the compounds of the present invention on the growth of the cells, and the concentration of the compound of the present invention (CC50) causing 50% of the cells dead were estimated according to the OD values.
A suitable amount of culture supernatant was added into a same volume of virus extract solution, and was boiled after mixed uniformly, then centrifuged at 10000 rpm for 5 min under room temperature. A suitable amount of supernatant was collected for PCR amplification. Five HBV-DNA standard samples were used to set a standard curve. According to the obtained viral DNA replication value, the inhibition rates of HBV-DNA replication of the compound of the present invention at different concentrations were calculated, and then the half inhibition rates of the compounds were calculated to obtain IC50. For the samples that can not be calculated for IC50 value, they can be represented by ICX and given the corresponding concentration values.

[1] = Cytotoxicity to HepG2.2.15 cells (MTT method); conditions: human, HepG2.2.15 cells (HBV-transgenic human hepatoma cells), 50% death concentration, eighth day
Source text: as §1, §2, §3

influenza A virus = experiment: Anti influenza A virus activity, cytopathic effect (CPE) in MDCK cells
Source text: (§4) 4. Screening of the samples for the anti-influenza virus A and B activity: MDCK (canine kidney) cells were used as the virus host to test the inhibition effect of the compounds of the present invention on the cytopathic effect (CPE) of the cells caused by the virus.

[2] = system: MDCK (canine kidney) cells; experiment: 50% toxicity concentration in the anti-influenza screen (MDCK cells); conditions: 50% toxity concentration, Table 3-2 (influenza screen, MDCK cells)
Source text: as §4

[3] = HepG2.2.15 supernatant, eighth day, fluorescent quantification PCR, read-out: DNA replication IC50
[4] = HepG2.2.15, read-out: DNA replication IC50

## CCOC(=O)c1nc(-c2ncc(C)s2)sc1CC(C)C [Compound C310]
Hepatitis B virus (HBV); [3]
  IC50: 0.14 µM
[1]
  CC50: > 100 µM

## C=CCC(=O)N[C@H](c1nc(-c2nc(C(=O)OC)c(C)o2)cs1)C(C)C [Wang 363.43-2]
Influenza A virus
  IC50: 0.42 µg/mL (≈ 1.16 µM)
[2]
  TC50: 500 µg/mL (≈ 1380 µM)

## COC(=O)c1coc([C@H](C)NC(=O)c2nc(-c3csc([C@@H](NC(=O)Cc4ccccc4)C(C)C)n3)oc2C)n1 [Wang 551.62]
Influenza A virus
  IC50: 1.18 µg/mL (≈ 2.14 µM)
[2]
  TC50: 303.69 µg/mL (≈ 551 µM)

## CCOC(=O)c1nc(-c2ccc(CC)s2)oc1CC(C)C [Compound C307]
Hepatitis B virus (HBV); [3]
  IC50: 22.5 µM
[1]
  CC50: 80 µM

## CC(C)Cc1cnc(-c2nccs2)o1 [Compound C208]
Hepatitis B virus (HBV); [3]
  IC50: 35.8 µM
[1]
  CC50: > 100 µM

## CCOC(=O)c1nc(-c2nc3cc(OC)ccc3s2)sc1CC(C)C [Compound C376]
Hepatitis B virus (HBV); [3]
  IC50: 23 µM
[1]
  CC50: 127 µM

## c1ccc(-c2cnc(-c3cccs3)o2)cc1 [Compound C227]
Hepatitis B virus (HBV); [3]
  IC50: 1.4 µM
[1]
  CC50: > 100 µM

## CCOC(=O)c1nc(-c2cccs2)[nH]c1C1CC1 [Compound C262]
Hepatitis B virus (HBV); [3]
  IC50: 4.3 µM
[1]
  CC50: 34.4 µM

## CCCCc1oc(-c2ccc(CCC)s2)nc1C(=O)OCC [Compound C321-1]
Hepatitis B virus (HBV); [3]
  IC50: 5.86 µM
[1]
  CC50: 80 µM

## CCOC(=O)c1nc(-c2ccc(C)s2)sc1CC(C)C [Compound C309]
Hepatitis B virus (HBV); ICX: concentration with 14.2% inhibition of HBV-DNA replication, IC50 not calculable
  DNA replication IC14.2: IC14.2 = 0.39 uM
[1]
  CC50: > 100 µM

## COC(=O)c1nc(-c2csc([C@@H](NC(=O)CCC=C(C)C)C(C)C)n2)oc1C [Yao405.51]
Influenza A virus
  IC50: 37 µg/mL (≈ 91.3 µM)
[2]
  TC50: 577.35 µg/mL (≈ 1420 µM)

## CCOC(=O)c1nc(-c2nc(CC)cs2)sc1CC(C)C [Compound C324-2]
Hepatitis B virus (HBV); [3]
  IC50: 0.14 µM
[1]
  CC50: > 100 µM

## CCOC(=O)c1nc(-c2cc3ccccc3[nH]2)sc1CC(C)C [Compound C328-2]
[1]
  CC50: 21.7 µM

## CC(C)Cc1sc(-c2nccs2)nc1C(=O)NCc1ccccc1 [Compound C357]
Hepatitis B virus (HBV); IC50 not calculable
  DNA replication IC89: IC89 = 33 uM
[1]
  CC50: 80 µM

## C=CCCC(=O)N[C@H](c1nc(-c2nc(C(=O)OC)c(C)o2)cs1)C(C)C [Wang 377.46-2]
Influenza A virus
  IC50: 259 µg/mL (≈ 685 µM)
[2]
  TC50: 577.35 µg/mL (≈ 1530 µM)

## CCOC(=O)c1nc(-c2cccs2)sc1C1CCCCC1 [Compound C321-2]
Hepatitis B virus (HBV); [4]
  IC50: 1.67 µM
[1]
  CC50: 28.2 µM

## CCOC(=O)c1nc(-c2cscn2)sc1CC(C)C [Compound C296-3]
Hepatitis B virus (HBV); [3]
  IC50: 0.14 µM
[1]
  CC50: 116 µM

## COC(=O)c1nc(-c2csc([C@@H](NC(=O)C3CCC3)C(C)C)n2)oc1C [Wang 377.46-1]
Influenza A virus
  IC50: 111 µg/mL (≈ 294 µM)
[2]
  TC50: 500 µg/mL (≈ 1320 µM)

## CCCCc1[nH]c(-c2nccs2)nc1C(=O)OCC [Compound C279-1]
Hepatitis B virus (HBV); ICX: concentration with 40% inhibition of HBV-DNA replication, IC50 not calculable
  DNA replication IC40: IC40 = 12.4 uM
[1]
  CC50: 94.7 µM

## COc1ccccc1C(=O)N[C@H](c1nc(-c2nc(C(=O)O)c(C)o2)cs1)C(C)C [Wang415.46]
Influenza A virus
  IC50: 29 µg/mL (≈ 69.8 µM)
[2]
  TC50: 333.33 µg/mL (≈ 802 µM)

## CCOC(=O)c1nc(-c2cccs2)[nH]c1C1CCCCC1 [Compound C304]
Hepatitis B virus (HBV); [3]
  IC50: 4.5 µM
[1]
  CC50: > 100 µM

## CCOC(=O)c1nc(-c2cc3ccccc3s2)[nH]c1CC(C)C [Compound C328]
Hepatitis B virus (HBV); [3]
  IC50: 0.19 µM
[1]
  CC50: > 7.5 µM

## c1ccc(-c2cnc(-c3cccs3)[nH]2)cc1 [Compound C226]
Hepatitis B virus (HBV); [3]
  IC50: 2.3 µM
[1]
  CC50: 53.2 µM

## CCOc1cnc(-c2oc(-c3cccs3)nc2C(=O)c2ccccc2)o1 [Compound C352]
Hepatitis B virus (HBV); [3]
  IC50: 8.3 µM
[1]
  CC50: > 33.3 µM

## CCOC(=O)c1nc(-c2nccs2)[nH]c1C1CCCCC1 [Compound C305-2]
Hepatitis B virus (HBV); [3]
  IC50: 4.1 µM
[1]
  CC50: > 100 µM

## CCOC(=O)c1nc(-c2nccs2)oc1C1CCCCC1 [Compound C306]
Hepatitis B virus (HBV); [3]
  IC50: 0.8 µM
[1]
  CC50: > 100 µM

## CC(C)Cc1sc(-c2nccs2)nc1C(=O)Nc1ccccc1 [Compound C343]
Hepatitis B virus (HBV); ICX: concentration with 19% inhibition of HBV-DNA replication, IC50 not calculable
  DNA replication IC19: IC19 = 1.23 uM

## CCOC(=O)c1nc(-c2nccs2)[nH]c1C1CC1 [Compound C263-1]
Hepatitis B virus (HBV); [3]
  IC50: 3.7 µM
[1]
  CC50: > 100 µM

## CCCCc1oc(-c2nccs2)nc1C(=O)OCC [Compound C280-2]
Hepatitis B virus (HBV); ICX: concentration with 26% inhibition of HBV-DNA replication, IC50 not calculable
  DNA replication IC26: IC26 = 0.41 uM
[1]
  CC50: > 100 µM

## CCCc1ccc(-c2nc(C(=O)OCC)c(CC(C)C)o2)s1 [Compound C321-3]
Hepatitis B virus (HBV); ICX: concentration with 27% inhibition of HBV-DNA replication, IC50 not calculable
  DNA replication IC27: IC27 = 1.23 uM
[1]
  CC50: 80 µM

## CCOC(=O)c1nc(-c2cccs2)oc1C1CCCCC1 [Compound C305-1]
Hepatitis B virus (HBV); [3]
  IC50: 2.6 µM
[1]
  CC50: > 100 µM

## CCOC(=O)c1nc(-c2cc3ccccc3s2)sc1CC(C)C [Compound C345]
Hepatitis B virus (HBV); [4]
  IC50: 1.32 µM
[1]
  CC50: > 88.1 µM

## CCCCc1sc(-c2cccs2)nc1C(=O)OCC [Compound C295-1]
Hepatitis B virus (HBV); [3]
  IC50: 11.7 µM
[1]
  CC50: 50 µM

## c1ccc(-c2cnc(-c3cccs3)s2)cc1 [Compound C243]
Hepatitis B virus (HBV); [3]
  IC50: 0.41 µM
[1]
  CC50: 84.5 µM

## NC(=O)c1ncn([C@@H]2O[C@H](CO)[C@@H](O)[C@H]2O)n1 [Ribavirin, reference compound]
Influenza A virus
  IC50: 3.73 µg/mL (≈ 15.3 µM)

## CCCc1ccc(-c2nc(C(=O)OCC)c(CC(C)C)s2)s1 [Compound C337]
[1]
  CC50: 60 µM

## CCCCc1sc(-c2nccs2)nc1C(=O)OCC [Compound C296-2]
Hepatitis B virus (HBV); IC50 not calculable
  DNA replication IC12: IC12 = 0.41 uM
[1]
  CC50: > 100 µM

## CNC(=O)c1nc(-c2nccs2)sc1CC(C)C [Compound C281]
Hepatitis B virus (HBV); ICX: concentration with 94% inhibition of HBV-DNA replication, IC50 not calculable
  DNA replication IC94: IC94 = 33 uM

## CCOC(=O)c1nc(-c2cccs2)oc1CC(C)C [Compound C279-3]
[1]
  CC50: > 100 µM

## CCOC(=O)c1nc(-c2ccc(C)s2)[nH]c1CC(C)C [Compound C292]
Hepatitis B virus (HBV); [3]
  IC50: 4.65 µM
[1]
  CC50: 139 µM

## CCOC(=O)c1nc(-c2cccs2)[nH]c1/C=C/c1ccccc1 [Compound C324]
[1]
  CC50: 61 µM

## CCOC(=O)c1nc(-c2cc3ccccc3[nH]2)[nH]c1CC(C)C [Compound C311-2]
Hepatitis B virus (HBV); [3]
  IC50: 0.07 µM
[1]
  CC50: 3.5 µM

## CCOC(=O)c1nc(-c2ccc(C)s2)oc1CC(C)C [Compound C293]
Hepatitis B virus (HBV); [3]
  IC50: 126 µM
[1]
  CC50: 80 µM

## CC(C)Cc1sc(-c2nccs2)nc1C(N)=O [Compound C267]
Hepatitis B virus (HBV); IC50 not calculable
  DNA replication IC89: IC89 = 33 uM

## CCCCc1oc(-c2cccs2)nc1C(=O)OCC [Compound C279-2]
Hepatitis B virus (HBV); [3]
  IC50: 51.9 µM
[1]
  CC50: 71.8 µM

## CC(C)Cc1sc(-c2nccs2)nc1C(=O)N(C)C [Compound C295-3]
Hepatitis B virus (HBV); IC50 not calculable
  DNA replication IC12: IC12 = 1.23 uM

## CCOC(=O)c1nc(-c2nccs2)[nH]c1C1CCC1 [Compound C277]
Hepatitis B virus (HBV); [3]
  IC50: 3.1 µM
[1]
  CC50: > 100 µM

## CCOC(=O)c1nc(-c2nccs2)oc1CC(C)C [Compound C280-1]
[1]
  CC50: > 100 µM

## CCOC(=O)c1nc(-c2cc3ccccc3s2)oc1CC(C)C [Compound C329]
Hepatitis B virus (HBV); ICX: concentration with 41.8% inhibition of HBV-DNA replication, IC50 not calculable
  DNA replication IC41.8: IC41.8 = 4 uM
[1]
  CC50: > 100 µM

## CCOC(=O)c1nc(-c2nccs2)[nH]c1C1CCCC1 [Compound C291]
Hepatitis B virus (HBV); [3]
  IC50: 5.5 µM
[1]
  CC50: > 100 µM
